Patent US4323559A, “Compounds derived from N-acetyl-nor-muramyl-L-alanyl-D-isoglutamic acid and other compounds and biologically active compositions containing such compounds” (Agencie Nationale de Valorisation de la Recherche (ANVAR), priority 1973, dated 1982)

How the values were obtained:
[1] = tested on: Klebsiella pneumoniae; assay: Anti-infectious protection of mice against Klebsiella pneumoniae infection; format: in vivo; details: compound iv. 100 μg at -24 h; for % protection: difference of % survivors vs controls; for % survival D + 3 / % survival D + 5 / % survival D + 10: mice
[2] = tested on: bovine serum albumin (BSA); assay: Adjuvant activity in aqueous phase: anti-albumin antibody titer by passive hemagglutination; format: in vivo, Swiss mice; details: S.C., 100 μg with BSA 0.5 mg/animal in isotonic saline; for Titer of antibody 28th day: Swiss mice; for Titer of antibody 34th day / Titer of antibody 36th day: booster 0.1 mg BSA at day 30
Experimental: In the series of tests of which the results are indicated hereafter, the influence of the active principle according to the invention was assessed as bearing on the anti-albumin antibody rate, particularly under the following conditions. Groups of 8 two-month-old Swiss mice received by subcutaneous injection (SC) or orally (PO) 0.5 mg of antigen constituted by the bovine serum albumin (BSA) with or without the substance tested in an isotonic saline solution. This large dose of antigen, because of its closeness to the limit paralysing dose with respect to the immunising response, elicits but a weak or no immune response in the controls; it therefore constitutes a severe criterion for showing the activity of an adjuvant substance. […] The proportion of antibody was determined by passive hemagglutination by using sheep red blood cells treated with formalin and coated with the antigen studied according to the method described by […] and […]. Immunol., 100, 641-648, 1968). Blood samples were taken 14, 28, 34 and 36 days after the first injection.

Structure (SMILES) | % protection ([1]; K. pneumoniae im. 2 × 10^4) [%] | % survival D + 3 ([1]; K. pneumoniae im. 2 × 10^4) [%] | % survival D + 5 ([1]; K. pneumoniae im. 2 × 10^4) [%] | % survival D + 10 ([1]; K. pneumoniae im. 2 × 10^4) [%] | % protection ([1]; K. pneumoniae im. 1,5 × 10^4) [%] | % survival D + 3 ([1]; K. pneumoniae im. 1,5 × 10^4) [%] | % survival D + 5 ([1]; K. pneumoniae im. 1,5 × 10^4) [%] | % survival D + 10 ([1]; K. pneumoniae im. 1,5 × 10^4) [%] | Titer of antibody 28th day [2] | Titer of antibody 34th day [2] | Titer of antibody 36th day [2]
CC(=O)N[C@H]1C(O)O[C@H](COC(=O)CCC(=O)O)[C@@H](O)[C@@H]1O[C@H](C)C(=O)N[C@@H](C)C(=O)N[C@H](CCC(=O)O)C(N)=O (stereo partly drawn) [6-O-succinyl-Mur-NAc-L-Ala-D-Glu, (OH)-NH2] | 44 | 100 | 91 | 63 |  |  |  |  |  |  | 
CC(=O)N[C@@H]1[C@@H](O[C@H](C)C(=O)N[C@@H](C)C(=O)N[C@H](CCC(=O)O)C(N)=O)[C@H](O)[C@@H](CO)O[C@H]1O [Mur-NAc-L-Ala-D-Glu(OH)--NH2, Mur-NAc-L-Ala-D-Glu(OH)-NH2, reference compound] |  |  |  |  | 47 | 83 | 66 | 60 | 25 | 50 | 400
CC(=O)N[C@H]1C(O)O[C@H](CO)[C@@H](O)[C@@H]1OCC(=O)N[C@@H](C)C(=O)N[C@H](CCC(=O)O)C(N)=O (stereo partly drawn) [norMur-NAc-L-Ala-D-Glu(OH)-NH2, 2-(2-acetamido-2-deoxy-3-O-D-glucopyranosyl)-acetyl-L-alanyl-D-isoglutamine] |  |  |  |  | 47 | 78 | 64 | 60 | 25 | 50 | 350
CC(=O)N[C@H]1C(O)O[C@H](COC(C)=O)[C@@H](OC(C)=O)[C@@H]1O[C@H](C)C(=O)N[C@@H](C)C(=O)N[C@H](CCC(=O)O)C(N)=O (stereo partly drawn) [4,6-di-O-acetyl-Mur-NAc-L-Ala-D-Glu (OH)-NH2] | 47 | 97 | 84 | 63 |  |  |  |  |  |  | 
